# According to PubChem BioAssay AID1199 (EPA DSSTox, 2008):
# Activity calls are given as the source filed them.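 How the source made its calls: active means a tumour-causing dose and a tumour site recorded for mice in at least one sex group; inconclusive means only government mouse studies exist and were judged inadequate; inactive means mouse studies exist but none gave tumours.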
# Tested on: mouse carcinogenicity bioassay, TD50 from CPDB
# Experiment: DSSTox (CPDBAS) Carcinogenic Potency Database Summary Mouse Bioassay Results
# Details: not given
# How it was run: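 Chronic long-term mouse cancer bioassays from literature and NCI/NTP, compiled per sex. TD50 is the standardized carcinogenic potency, using the most positive experiment per sex-species; target sites follow author opinion.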
row,SMILES,Potency [mmol/kg/day]
1,CN(N=O)C(N)=O,0.0119

# Same assay, conditions: TD50_Mouse_Note: TD50 is harmonic mean of more than one positive test; TD50_Mouse_mmol was not calculated for this mixture, but Activiity; TargetSites_Mouse_Female: liver
row,SMILES,outcome
1,C=C1C(CCl)(CCl)C2(Cl)C(Cl)C(Cl)C1(Cl)C2(Cl)Cl (stereo not drawn),active; liver

# Same assay, conditions: TD50_Mouse_Note: TD50 is harmonic mean of more than one positive test; TargetSites_Mouse_Female: esophagus; oral cavity; stomach
row,SMILES,Potency [mmol/kg/day]
1,c1ccc2c(c1)cc1ccc3cccc4ccc2c1c34,0.0138

# Same assay, conditions: TD50_Mouse_Note: TD50 is harmonic mean of more than one positive test; TargetSites_Mouse_Female: harderian gland; pituitary gland; vascular system
row,SMILES,Potency [mmol/kg/day]
1,C=CC(=C)C,4.02

# Same assay, conditions: TD50_Mouse_Note: TD50 is harmonic mean of more than one positive test; TargetSites_Mouse_Female: hematopoietic system
row,SMILES,Potency [mmol/kg/day]
1,NC(=O)N(CCO)N=O,0.00615

# Same assay, conditions: TD50_Mouse_Note: TD50 is harmonic mean of more than one positive test; TargetSites_Mouse_Female: liver
row,SMILES,Potency [mmol/kg/day]
1,c1ccncc1,0.308
2,Cc1ccc(N)cc1N,1.04
3,CCCCC(CC)COC(=O)c1ccccc1C(=O)OCC(CC)CCCC (stereo not drawn),1.79
4,ClC1C(Cl)C(Cl)C(Cl)C(Cl)C1Cl (stereo not drawn),0.0956
5,Cc1c([N+](=O)[O-])c(C)c([N+](=O)[O-])c(C(C)(C)C)c1[N+](=O)[O-],0.427
6,O=Cc1ccco1,2.05

# Same assay, conditions: TD50_Mouse_Note: TD50 is harmonic mean of more than one positive test; TargetSites_Mouse_Female: liver; lung
row,SMILES,Potency [mmol/kg/day]
1,ClC1C(Cl)C(Cl)C(Cl)C(Cl)C1Cl (stereo not drawn),0.106
2,O=c1ccc2ccccc2o1,0.705

# Same assay, conditions: TD50_Mouse_Note: TD50 is harmonic mean of more than one positive test; TargetSites_Mouse_Female: liver; urinary bladder
row,SMILES,Potency [mmol/kg/day]
1,COc1ccc(C)cc1N,0.396

# Same assay, conditions: TD50_Mouse_Note: TD50 is harmonic mean of more than one positive test; TargetSites_Mouse_Female: no positive results
row,SMILES,Potency [mmol/kg/day]
1,Cc1cc(C(C)(C)C)c(O)c(C(C)(C)C)c1,2.96

# Same assay, conditions: TD50_Mouse_Note: TD50 is harmonic mean of more than one positive test; TargetSites_Mouse_Female: stomach
row,SMILES,Potency [mmol/kg/day]
1,ClCc1ccccc1,0.486

# Same assay, conditions: TD50_Mouse_Note: TD50 is harmonic mean of more than one positive test; TargetSites_Mouse_Female: thyroid gland
row,SMILES,Potency [mmol/kg/day]
1,COc1ccc(N)cc1N,3.83

# Same assay, conditions: TD50_Mouse_Note: TD50 is harmonic mean of more than one positive test; TargetSites_Mouse_Female: urinary bladder
row,SMILES,Potency [mmol/kg/day]
1,COc1ccccc1N,6.05

# Same assay, conditions: TD50_Mouse_Note: TD50 is harmonic mean of more than one positive test; greater than ten-fold variation among TD50 values for positive res; TargetSites_Mouse_Female: ear Zymbals gland; hematopoietic system; lung; mammary gland; ovary
row,SMILES,Potency [mmol/kg/day]
1,c1ccccc1,0.992

# Same assay, conditions: TD50_Mouse_Note: TD50 is harmonic mean of more than one positive test; greater than ten-fold variation among TD50 values for positive res; TargetSites_Mouse_Female: liver
row,SMILES,Potency [mmol/kg/day]
1,C1COCCO1,2.32
2,COC(=O)C(C)(C)Oc1ccc(-c2ccc(Cl)cc2)cc1,0.00824
3,Cc1nc(N)cc2[nH]c3ccccc3c12,0.049

# Same assay, conditions: TD50_Mouse_Note: TD50 is harmonic mean of more than one positive test; greater than ten-fold variation among TD50 values for positive res; TargetSites_Mouse_Female: liver; urinary bladder
row,SMILES,Potency [mmol/kg/day]
1,CC(=O)Nc1ccc2c(c1)Cc1ccccc1-2,0.034

# Same assay, conditions: TD50_Mouse_Note: TD50 is harmonic mean of more than one positive test; harmonic mean of TD50 includes a value for upper 99% confidence li; TargetSites_Mouse_Female: liver
row,SMILES,Potency [mmol/kg/day]
1,ClC1C(Cl)C(Cl)C(Cl)C(Cl)C1Cl (stereo not drawn),0.0509
2,ClC1=C(Cl)[C@]2(Cl)[C@@H]3[C@@H]4C[C@@H]([C@H]5O[C@@H]45)[C@@H]3[C@@]1(Cl)C2(Cl)Cl,0.00239
3,Nc1ccc2oc3ccccc3c2c1,0.0231

# Same assay, conditions: TD50_Mouse_Note: TD50 value is overestimated as upper 99% confidence limit from study with 100% tumor incidence but no lifetable; harmoni
row,SMILES,Potency [mmol/kg/day]
1,ClC1C(Cl)C(Cl)C(Cl)C(Cl)C1Cl (stereo not drawn),0.0228

# Same assay, conditions: TD50_Mouse_Note: no positive results
row,SMILES,outcome
1,C=C1CC[C@H](O)C/C1=C/C=C1\CCC[C@]2(C)[C@@H]([C@H](C)/C=C/[C@H](C)C(C)C)CC[C@@H]12,inactive
2,C/C1=C\C=C(\C(C)C)[C@@H](O)C/C(C)=C/CC/C(C)=C/CC1,inactive; no positive results

# Same assay, conditions: TD50_Mouse_Note: no positive results are statistically significant; TargetSites_Mouse_Female: no positive results
row,SMILES,Potency [mmol/kg/day]
1,Cc1cccc(N)c1,10

# Same assay, conditions: TD50_Mouse_Note: no positive results; TargetSites_Mouse_Female: no positive results
row,SMILES,outcome
1,Nc1ccc(O)c([N+](=O)[O-])c1,inactive; no positive results
2,CBr,inactive; no positive results
3,CC[C@H]1OC(=O)[C@H](C)[C@@H](O[C@H]2C[C@@](C)(OC)[C@@H](O)[C@H](C)O2)[C@H](C)[C@@H](O[C@@H]2O[C@H](C)C[C@H](N(C)C)[C@H]2O)[C@](C)(O)C[C@@H](C)C(=O)[C@H](C)[C@@H](O)[C@]1(C)O,inactive; no positive results
4,O=C(O)c1ccc([N+](=O)[O-])cc1,inactive; no positive results
5,CC(=O)OC[C@H]1O[C@H](O[C@]2(COC(C)=O)O[C@H](COC(=O)C(C)C)[C@@H](OC(=O)C(C)C)[C@@H]2OC(=O)C(C)C)[C@H](OC(=O)C(C)C)[C@@H](OC(=O)C(C)C)[C@@H]1OC(=O)C(C)C,inactive; no positive results
6,C=C(C)C#N,inactive; no positive results
7,Oc1cccc2cccnc12,inactive; no positive results
8,CN1C(=O)CN=C(c2ccccc2)c2cc(Cl)ccc21,inactive; no positive results
9,CC(C)OC(=O)Nc1ccccc1,inactive; no positive results
10,Cc1cccc(C)c1NC(=O)CN1CCCC1=O,inactive; no positive results
11,Nc1ccccc1C(=O)O,inactive; no positive results
12,CC(C)OC(=O)COc1ccc(Cl)cc1Cl,inactive; no positive results
13,CN[C@@H](C)[C@H](O)c1ccccc1,inactive; no positive results
14,S=C([S-])NCCNC(=S)[S-].[Zn+2],inactive; no positive results
15,COc1ccc(N)cc1,inactive; no positive results
16,Nc1ccccc1,inactive; no positive results
17,ClC1=C(Cl)C(Cl)(Cl)C(Cl)=C1Cl,inactive; no positive results
18,Cc1c(N(C)C)c(=O)n(-c2ccccc2)n1C,inactive; no positive results
